The text below walks through data of publication PMC4823791, “A dual drug regimen synergistically blocks human parainfluenza virus infection” (Scientific Reports, 2016).

Assay [1] addresses T1, hPIV-3 HN (haemagglutinin-neuraminidase) (Human parainfluenza 3 virus (strain NIH 47885), UniProt P08492). As to the kind of experiment: Lineweaver-Burk kinetics, MUN fluorescence. It is filed as biochemical. As to conditions: virus particles; MUN 2-20 mM, so Km lies above the tested range (extrapolated): unreliable. As for the experimental part:
Lineweaver-Burk kinetics, MUN fluorescence on hPIV-3 HN (haemagglutinin-neuraminidase) | constant (KM) value ... was calculated from this point of convergence

The target of assay [2] is T1, hPIV-3 HN (haemagglutinin-neuraminidase). As to the kind of experiment: fluorogenic MUN neuraminidase inhibition screen. It is filed as biochemical. The source says: fluorogenic MUN neuraminidase inhibition screen on hPIV-3 HN (haemagglutinin-neuraminidase) | Evans blue and erythrosine sodium, with a neuraminidase inhibition of […]
For assay [3] the target is unchanged. As to the kind of experiment: STD-NMR. The format is binding. As to conditions: 5 mM zanamivir alone, 50 mM NaOAc, 5 mM CaCl2, pD 4.6, 283 K; purified UV-inactivated virus particles.
For assay [4] the target is unchanged. The assay can be described thus: fluorogenic MUN neuraminidase inhibition assay. As to conditions: neuraminidase activity; 2 mM MUN, pH 4.6, 5 mM CaCl2, 37 °C, 30 min; PEG-precipitated intact virus; non-competitive. It is filed as biochemical.
For assay [5] the target is unchanged. As to the kind of experiment: Lineweaver-Burk kinetics, MUN fluorescence. It is filed as biochemical. As to conditions: non-competitive; MUN 2-20 mM, suramin 0, 10, 16 μM; virus particles.

For orientation: KM means the substrate concentration at which the rate is half of its maximum. A word on the inhibition: it is the change of the read-out against control, counted positive when it falls. Broadly, the IC50 is the point on the concentration scale where inhibition reaches its midpoint. A higher IC50 goes with lower potency. As usually defined, the Ki is a dissociation constant, usually derived from enzyme kinetics or from competition with a known ligand. Low readings indicate higher affinity, high ones lower affinity.

T1 sequence (P08492 whole entry): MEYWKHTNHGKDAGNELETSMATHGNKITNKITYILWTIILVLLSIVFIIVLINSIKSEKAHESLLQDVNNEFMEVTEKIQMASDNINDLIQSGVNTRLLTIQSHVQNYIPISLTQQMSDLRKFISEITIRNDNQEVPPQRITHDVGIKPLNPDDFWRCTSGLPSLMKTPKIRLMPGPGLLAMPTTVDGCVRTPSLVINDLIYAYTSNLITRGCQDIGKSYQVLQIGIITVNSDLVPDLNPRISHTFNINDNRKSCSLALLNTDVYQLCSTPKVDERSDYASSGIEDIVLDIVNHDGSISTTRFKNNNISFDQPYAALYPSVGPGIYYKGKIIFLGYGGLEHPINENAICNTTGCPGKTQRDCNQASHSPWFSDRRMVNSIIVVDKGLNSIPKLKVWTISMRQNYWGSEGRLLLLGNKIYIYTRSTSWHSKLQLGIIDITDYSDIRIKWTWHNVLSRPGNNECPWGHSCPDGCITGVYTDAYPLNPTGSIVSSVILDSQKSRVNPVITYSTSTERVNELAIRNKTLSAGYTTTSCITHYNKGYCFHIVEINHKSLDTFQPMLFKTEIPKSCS

As for `CC(=O)N[C@H]1[C@H]([C@H](O)[C@H](O)CO)O[C@@](Oc2ccc3c(C)cc(=O)oc3c2)(C(=O)O)C[C@@H]1O` [compound 6, 2′-(4-methylumbelliferyl) α-D-N-acetylneuraminide], the KM in assay [1] was 30.3 ± 1.02 mM.
`O=C1OC2(c3ccccc31)c1cc(I)c(O)c(I)c1Oc1c2cc(I)c(O)c1I` [erythrosine sodium]: the inhibition at 100 µM in assay [2] was determined as 92.8 ± 0.9%.
For `CC(=O)N[C@H]1[C@H]([C@H](O)[C@H](O)CO)OC(C(=O)O)=C[C@@H]1N=C(N)N` [compound 3, zanamivir], the STD-NMR entry in assay [3] was “STD-NMR signals of both drugs were obtained, thus confirming their binding to HN”.
On to `Cc1ccc(C(=O)Nc2ccc(S(=O)(=O)O)c3cc(S(=O)(=O)O)cc(S(=O)(=O)O)c23)cc1NC(=O)c1cccc(NC(=O)Nc2cccc(C(=O)Nc3cc(C(=O)Nc4ccc(S(=O)(=O)O)c5cc(S(=O)(=O)O)cc(S(=O)(=O)O)c45)ccc3C)c2)c1` [compound 7, suramin], for which the half-inhibitory concentration (IC50) in assay [4] was determined as 13.5 µM. In assay [5], this compound yielded a Ki of 5.06 ± 0.62 µM.
The compound `Cc1cc(-c2ccc(/N=N/c3ccc4c(S(=O)(=O)O)cc(S(=O)(=O)O)c(N)c4c3O)c(C)c2)ccc1/N=N/c1ccc2c(S(=O)(=O)O)cc(S(=O)(=O)O)c(N)c2c1O` [Evans blue] yielded an inhibition at 100 µM in assay [2] of 79.4 ± 1.8%.
